Reference: patent US11846638B2, “Methods for detecting Na/K-ATPase-mediated Src signaling for diagnosis and prognosis of cancer” (Marshall University Research Corporation, priority 2017, dated 2023)
Entries after “also recorded” stand apart in the source; their conditions may differ.

Assays:
[1] = tested on: AAC-19 and Y260A cells; assay: Extracellular acidification rate (ECAR), Seahorse, in AAC-19 and Y260A cells; format: cell-based, porcine; settings: for ECAR after oligomycin (maximal capacity of glycolysis): after addition of glucose
Protocol: Bioenergetics. Properties of cellular bioenergetics were characterized using Seahorse XFp Extracellular Flux Analyzer by measuring oxygen consumption rate (OCR) and extracellular acidification rate (ECAR) following the guidelines provided by the manufacturer. Prior to the start of Seahorse assay, optimal FCCP concentration for each cell line was determined by titration studies. Unless indicated otherwise, 10,000 cells per well were seeded with culture medium. Bicarbonate-free medium (Agilent Technologies) with different substrates (10 mM glucose, 2 mM glutamine and 1 mM pyruvate for Cell Mito Stress Test assays; 2 mM glutamine for Glycolysis Stress Test assays) was replaced one hour prior to the assay. Baseline OCR and ECAR rates were measured three times before various inhibitors, stimulants, substrates, or compounds were added through the drug delivery ports. In the PP2 study, cells were pretreated with 5 μM PP2 for 4 h and then analyzed.

[2] = tested on: AAC-19 and Y260A cells; assay: Cellular ATP content (CellTiter-Glo) under glycolysis inhibition; format: cell-based, porcine; settings: Y260A cells compared to AAC-19 cells; 2-DG 45 minutes in serum-free DMEM
Protocol: (§1) Biochemical measurement of ATP and lactate. ATP measurements were performed using CellTiter-Glo Luminescent Cell Viability Assay kit. 10,000 cells per well were cultured in 96-well culture plate. After treatment with 2-DG at indicated concentrations in serum-free DMEM for 45 minutes, assay reagents were reconstituted and added into culture plate. Luminescent counts of the reactants were determined from an opaque-walled 96-well plate with a microplate reader. Lactate measurement was done by colorimetric methods as described by previously. In PP2 study, culture medium containing serum and 5 μM PP2 was replaced in culture dish and collected after 4 hours for measurements.

[3] = tested on: α1 Na/K-ATPase Y260 phosphorylation; assay: Y260 phosphorylation of α1 Na/K-ATPase in LLC-PK1 cells (immunoblot); format: cell-based, porcine
Protocol: (§2) Cell culture and cell line generation. All cell lines were purchased from and maintained according to ATCC (Manassas, Va.). LLC-PK1 was serum starved before being used for signaling experiments. AAC-19, Y260A and DU145, A4-7 cell lines were cultured in the presence of 0.5% and 1% serum respectively for 24 hours before being used for the signaling experiments. LLC-PK1 cells were transfected (Lipofectamine 2000) with pEYFP-C1 vector containing α1 CD2, α2 CD2 or pEYFP-C1 empty vector. After verifying YFP expression visually, the cells were selected with 1 mg/ml G418 for one week. G418 resistant clones were selected and expanded. Cells were then cultured without G418 for at least three generations before being used for experiments. CD2N and CD2C cells were generated in similar manner. Y260A cells were generated by transfecting PY-17 cells with pRC/CMV-α1 AACm1 vector harboring mutation at Y260 and selected with ouabain (3 μM). Ouabain-resistant clones were isolated and expanded into stable cell lines. The cells were cultured for at least 3 generations without ouabain before being used for any experiment. DU-P1, A4-7 and A4-3 cell lines were generated by transfecting DU145 cells with a α1 Na/K-ATPase-specific siRNA containing vector and selecting with Puromycin as described above. All constructs were verified by DNA sequencing.
(§3) Immunoblot, Immunoprecipitation and Immunostaining Analysis. Immunoblot assays were performed as described previously. Intensity of bands were quantified with ImageJ software (NIH). Immunoprecipitation was performed by adding 5 μg of anti-Src (Millipore Cat #05-184) antibody to 500 μg of cell lysate (1 μg/μl concentration) or 8 μg of anti-α1 Na/K-ATPase antibody (Millipore Cat #06-520) to 800 μg of cell lysate ([…] concentration). Precipitated proteins were then analyzed as described previously. For immunostaining antibodies used—anti-α1 Na/K-ATPase antibody (Millipore Cat #05-369) and Alexa Fluor 488-conjugated anti-mouse secondary antibody.

[4] = tested on: α1 Na/K-ATPase Y10 phosphorylation; assay: Y10 phosphorylation of α1 Na/K-ATPase in LLC-PK1 cells (immunoblot); format: cell-based, porcine
Protocol: as §2, with “DU-P1, A4-7 and A4-3 cell lines were generated by transfecting DU145 cells with a α1 Na/K-ATPase-specific siRNA containing vector and selecting with Puromycin as described above. All constructs were verified by DNA sequencing.” left out
(§4) Immunoblot, Immunoprecipitation and Immunostaining Analysis. […] Intensity of bands were quantified with ImageJ software (NIH). […] Precipitated proteins were then analyzed as described previously. […]

[5] = tested on: ERK1/2; assay: ERK activation (pERK1/2/ERK1/2) by Western blot in AAC-19 and Y260A cells; format: cell-based, porcine; settings: for ERK phosphorylation (pERK1/2/ERK1/2): different concentrations of ouabain for 10 minutes
Protocol: as §2, §3

[6] = tested on: Y260A cells; assay: Lactate production in culture medium of Y260A cells; format: cell-based, porcine; settings: 5 μM PP2 for 4 h
Protocol: as §1

[7] = tested on: Y260A cells; assay: qPCR of upregulated metabolic genes in Y260A cells; format: cell-based, porcine; settings: 5 μM PP2 overnight
Text: RNA Extraction, cDNA Synthesis and Quantitative PCR. Total RNA was isolated with the QIAGEN RNeasy Mini Kit. The same amount of total RNA was used for synthesizing first-stand cDNA with the SuperScript III First-Stand Synthesis SuperMix for qRT-PCR (ThermoFisher). The cDNA from each sample was used as a template for the quantitative PCR (Syber green) with Roche LightCycler® 480 Real-Time PCR System. All primers were synthesized by Integrated DNA Technologies (IDT). β-actin was used as internal control.

[8] = tested on: A4-7 cells; assay: Lactate production in medium of A4-7 cells; format: cell-based, human; settings: 5 μM PP2 for 4 h
Protocol: as §1

[9] = tested on: A4-7 cells; assay: Cell proliferation of A4-7 cells; format: cell-based, human; settings: PP2, 48 hours
Protocol: Cell growth assay and MTT assay. Cell growth assay and MTT assay were performed as previously described.

[10] = tested on: Src; assay: Src activation (pY418Src/c-Src) by Western blot in LLC-PK1, AAC-19 and Y260A cells; format: cell-based, porcine; settings: for Src phosphorylation (pY418Src/c-Src): different concentrations of ouabain for 10 minutes
Protocol: as §2, §3

[11] = tested on: EGFR; assay: EGFR phosphorylation at Y845 in AAC-19 and Y260A cells; format: cell-based, porcine; settings: AAC-19 cells; different concentrations of EGF
Protocol: as §2, with “DU-P1, A4-7 and A4-3 cell lines were generated by transfecting DU145 cells with a α1 Na/K-ATPase-specific siRNA containing vector and selecting with Puromycin as described above. All constructs were verified by DNA sequencing.” left out
as §4

[12] = tested on: Src; assay: Src activation (pY418 Src/c-Src) by Western blot in DU-P1 and A4-7 cells; format: cell-based, human; settings: different concentrations of EGF for 5 minutes
Protocol: as §2, with “DU-P1, A4-7 and A4-3 cell lines were generated by transfecting DU145 cells with a α1 Na/K-ATPase-specific siRNA containing vector and selecting with Puromycin as described above. All constructs were verified by DNA sequencing.” left out
as §4

[13] = tested on: EGFR; assay: EGFR activation (pY845 EGFR/EGFR) by Western blot in DU-P1 and A4-7 cells; format: cell-based, human; settings: different concentrations of EGF for 5 minutes
Protocol: as §2, with “DU-P1, A4-7 and A4-3 cell lines were generated by transfecting DU145 cells with a α1 Na/K-ATPase-specific siRNA containing vector and selecting with Puromycin as described above. All constructs were verified by DNA sequencing.” left out
as §4

[14] = tested on: Akt; assay: Akt activation (pS473Akt/Akt) by Western blot in AAC-19 and Y260A cells; format: cell-based, porcine; settings: different concentrations of ouabain for 10 minutes
Protocol: as §2, with “DU-P1, A4-7 and A4-3 cell lines were generated by transfecting DU145 cells with a α1 Na/K-ATPase-specific siRNA containing vector and selecting with Puromycin as described above. All constructs were verified by DNA sequencing.” left out
as §4

O=CC[C@@H](O)[C@H](O)[C@H](O)CO [2-DG, 2-deoxyglucose]
ECAR after 2-DG ([1]; AAC-19 and Y260A cells, after glucose and oligomycin): completely reversed the increase
cellular ATP content in response to inhibition of glycolysis [2]: much more sensitive

CC[C@H]1/C=C/C=C/C[C@@H](C)[C@H](O)[C@@](C)(O)C(=O)[C@@H](C)[C@H](O)[C@@H](C)C(=O)[C@@H](C)[C@H](O)[C@@H](C)/C=C/C(=O)O[C@@H]2[C@H](C)[C@H](CC1)O[C@]1(CC[C@H](C)[C@H](C[C@@H](C)O)O1)[C@H]2C [oligomycin]
ECAR after oligomycin (maximal capacity of glycolysis) ([1]; AAC-19 cells): further increase
ECAR after oligomycin (maximal capacity of glycolysis) ([1]; Y260A cells): not in Y260A cells

CC(C)(C)n1nc(-c2ccc(Cl)cc2)c2c(N)ncnc21 [PP2]
Y260 phosphorylation ([3]; PP2 5 μM, 30 minutes pretreatment): attenuated
Y10 phosphorylation ([4]; PP2 5 μM, 30 minutes): Neither inhibitor nor knockout of Src kinase affected
basal ERK activities (increased in Y260A cells) ([5]; Y260A cells, PP2): sensitive to PP2; also recorded: sensitive to Src inhibitor
lactate production [6]: sufficient to reduce; also recorded: blocked the increase
glycolysis rate (ECAR) ([1]; Y260A cells, 5 μM PP2 for 4 h): sufficient to reduce
mRNA level of upregulated glycolytic/metabolic genes [7]: restored the mRNA level of most of these upregulated genes; also recorded: reduced the expression
lactate production (increased in A4-7 cells) [8]: sensitive to Src inhibition
cell proliferation rate [9]: reversed; also recorded: inhibition

EGF: recombinant EGF, stimulates EGFR/Src signaling
Y260 phosphorylation of Na/K-ATPase ([3]; recombinant EGF, time and dose): time- and dose-dependent stimulation
Src kinase activity ([10]; AAC-19 cells, different concentrations of EGF): stimulated
Src phosphorylation at Y418 ([10]; LLC-PK1 cells, recombinant EGF, time and dose): time- and dose-dependent stimulation
phosphorylation of EGFR at Y845 [11]: stimulated
Src activation (pY418 Src/c-Src) ([12]; A4-7 cells): not in A4-7 cells
Src activation (pY418 Src/c-Src) ([12]; DU-P1 cells): able to stimulate
Y845 phosphorylation of EGFR ([13]; A4-7 cells): not in A4-7 cells
Y845 phosphorylation of EGFR ([13]; DU-P1 cells): able to stimulate

C[C@@H]1O[C@@H](O[C@H]2C[C@@H](O)[C@]3(CO)[C@H]4[C@H](O)C[C@]5(C)[C@@H](C6=CC(=O)OC6)CC[C@]5(O)[C@@H]4CC[C@]3(O)C2)[C@H](O)[C@H](O)[C@H]1O [ouabain]
Y260 phosphorylation ([3]; ouabain, function of time and concentration): increased
Y10 phosphorylation ([4]; ouabain): no effect
Src phosphorylation (pY418Src/c-Src) ([10]; AAC-19 cells): stimulated
Src phosphorylation (pY418Src/c-Src) ([10]; Y260A mutant cells): abolished
ERK phosphorylation (pERK1/2/ERK1/2) ([5]; AAC-19 cells): stimulated
ERK phosphorylation (pERK1/2/ERK1/2) ([5]; Y260A mutant cells): abolished
ouabain-induced ERK activation (pERK1/2/ERK 1/2) ([5]; Y260A mutant clone 24 cells): failed to respond
Akt phosphorylation (pS473Akt/Akt) ([14]; AAC-19 cells): stimulated
Akt phosphorylation (pS473Akt/Akt) ([14]; Y260A mutant cells): abolished
